target: T1, human ENT1 (Homo sapiens, UniProt Q99808); experiment: ENT1 binding assay (competition with Sahenta-DY647 on JAR cells); parameters: JAR cells expressing ENT1 were bought from ATCC; host or cells: JAR cells; details: binned IC50
T1 sequence (Q99808 1-456): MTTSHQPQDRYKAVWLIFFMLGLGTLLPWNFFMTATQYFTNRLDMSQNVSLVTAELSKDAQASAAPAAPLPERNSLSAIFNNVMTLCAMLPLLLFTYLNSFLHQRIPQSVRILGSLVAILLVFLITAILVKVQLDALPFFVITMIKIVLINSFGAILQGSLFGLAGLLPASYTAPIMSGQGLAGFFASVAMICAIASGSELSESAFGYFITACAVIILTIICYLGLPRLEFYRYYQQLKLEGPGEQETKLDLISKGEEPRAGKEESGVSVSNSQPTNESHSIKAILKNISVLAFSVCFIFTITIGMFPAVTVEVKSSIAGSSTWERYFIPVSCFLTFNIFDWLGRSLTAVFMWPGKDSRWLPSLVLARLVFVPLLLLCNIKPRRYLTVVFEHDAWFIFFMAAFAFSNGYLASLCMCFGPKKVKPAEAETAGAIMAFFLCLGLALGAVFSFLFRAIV
Procedure: Purpose. […] By measuring the fluorescence at the end of the assay we could assess the binding potency of the compounds of the present invention.
JAR cells were resuspended in the described buffer. Compounds of the present invention and Sahenta-DY647 were diluted 200× in the described buffer.
The total volume of the reaction was 100 μL (50 μL of cells, 25 μL of the compounds of the present invention and 25 μL of Sahenta-DY647) in a 96 well plate, U-bottom (Greiner®, #650-180). The plates were washed 2× by centrifugation (4 min, 400 rcf at 4° C.) in the same buffer.

| Structure (SMILES) | IC50 [nM] |
| --- | --- |
| COCCN(CCOC)c1nc(N2CCC(C(N)=O)CC2)c2nc(N(CCOC)CCOC)nc(N3CCC(OC)CC3)c2n1 [Compound 75, 1-(2,6-bis(bis(2-methoxyethyl)amino)-8-(4-methoxypiperidin-1-yl)pyrimido[5,4-d]pyrimidin-4-yl)piperidine-4-carboxamide] | 100 to 500 |
| COCCN(CCOC)c1nc(N2CCC(OC)CC2)c2nc(N(CCOC)CCOC)nc(N3CCC(COC)CC3)c2n1 [Compound 76, N2,N2,N6,N6-tetrakis(2-methoxyethyl)-4-(4-(methoxymethyl)piperidin-1-yl)-8-(4-methoxypiperidin-1-yl)pyrimido[5,4-d]pyrimidine-2,6-diamine] | 500 to 1000 |
| COCCN(CCOC)c1nc(N2CCC(OC)CC2)c2nc(N(CCOC)CCOC)nc(N3CCCOCC3)c2n1 [Compound 79, N2,N2,N6,N6-tetrakis(2-methoxyethyl)-4-(4-methoxypiperidin-1-yl)-8-(1,4-oxazepan-4-yl)pyrimido[5,4-d]pyrimidine-2,6-diamine] | < 100 |
| COCCN(CCOC)c1nc(N2CCC(OC)CC2)c2nc(N(CCOC)CCOC)nc(N(C)CCc3ccccn3)c2n1 [Compound 83, N2,N2,N6,N6-tetrakis(2-methoxyethyl)-8-(4-methoxypiperidin-1-yl)-N4-methyl-N4-(2-(pyridin-2-yl)ethyl)pyrimido[5,4-d]pyrimidine-2,4,6-triamine] | 500 to 1000 |
| COCCN(CCOC)c1nc(N2CCC(OC)CC2)c2nc(N(CCOC)CCOC)nc(NCc3cnccn3)c2n1 [Compound 84, N2,N2,N6,N6-tetrakis(2-methoxyethyl)-8-(4-methoxypiperidin-1-yl)-N4-(pyrazin-2-ylmethyl)pyrimido[5,4-d]pyrimidine-2,4,6-triamine] | 500 to 1000 |
| CCN(CC)c1nc(N(CCOC)CCOC)nc2c(N3CCC(OC)CC3)nc(N(CCOC)CCOC)nc12 [Compound 85, N4,N4-diethyl-N2,N2,N6,N6-tetrakis(2-methoxyethyl)-8-(4-methoxypiperidin-1-yl)pyrimido[5,4-d]pyrimidine-2,4,6-triamine] | < 100 |
| COCCN(CCOC)c1nc(N2CC(OC)C2)c2nc(N(CCOC)CCOC)nc(N3CCC(OC)CC3)c2n1 [Compound 86, 4-(3-methoxyazetidin-1-yl)-N2,N2,N6,N6-tetrakis(2-methoxyethyl)-8-(4-methoxypiperidin-1-yl)pyrimido[5,4-d]pyrimidine-2,6-diamine] | 100 to 500 |
| COCCN(CCOC)c1nc(N2CCOC(C)C2)c2nc(N(CCOC)CCOC)nc(N3CCC(OC)CC3)c2n1 (stereo not drawn) [Compound 87, N2,N2,N6,N6-tetrakis(2-methoxyethyl)-4-(4-methoxypiperidin-1-yl)-8-(2-methylmorpholino)pyrimido[5,4-d]pyrimidine-2,6-diamine] | 100 to 500 |

More lines, now with the values ahead:

| IC50 [nM] | Structure (SMILES) |
| --- | --- |
| < 100 | COCCN(CCOC)c1nc(N2CCS(=O)(=O)CC2)c2nc(N(CCOC)CCOC)nc(N3CCC(OC)CC3)c2n1 [Compound 77, 4-(2,6-bis(bis(2-methoxyethyl)amino)-8-(4-methoxypiperidin-1-yl)pyrimido[5,4-d]pyrimidin-4-yl)thiomorpholine 1,1-dioxide] |
| 500 to 1000 | COCCN(CCOC)c1nc(N2CCC(S(C)(=O)=O)CC2)c2nc(N(CCOC)CCOC)nc(N3CCC(OC)CC3)c2n1 [Compound 78, N2,N2,N6,N6-tetrakis(2-methoxyethyl)-4-(4-methoxypiperidin-1-yl)-8-(4-(methylsulfonyl)piperidin-1-yl)pyrimido[5,4-d]pyrimidine-2,6-diamine] |
| 100 to 500 | COCCN(CCOC)c1nc(N2CCC(OC)C2)c2nc(N(CCOC)CCOC)nc(N3CCC(OC)CC3)c2n1 (stereo not drawn) [Compound 80, N2,N2,N6,N6-tetrakis(2-methoxyethyl)-4-(4-methoxypiperidin-1-yl)-8-(3-methoxypyrrolidin-1-yl)pyrimido[5,4-d]pyrimidine-2,6-diamine] |
| 100 to 500 | COCCN(CCOC)c1nc(N2CCC(OC)CC2)c2nc(N(CCOC)CCOC)nc(N(C)Cc3ccncc3)c2n1 [Compound 82, N2,N2,N6,N6-tetrakis(2-methoxyethyl)-8-(4-methoxypiperidin-1-yl)-N4-methyl-N4-(pyridin-4-ylmethyl)pyrimido[5,4-d]pyrimidine-2,4,6-triamine] |

Source: patent publication US20230146675A1, “PYRIMIDO[5,4-d]PYRIMIDINE DERIVATIVES AS ENT INHIBITORS FOR THE TREATMENT OF CANCERS, AND COMBINATION THEREOF WITH ADENOSINE RECEPTOR ANTAGONISTS” (ITEOS BELGIUM SA, priority 2020, published 2023)
